Laboratory results reported in patent US8957219B2, “Acetic acid amide derivative having inhibitory activity on endothelial lipase” (Shionogi & Co., Ltd., priority 2008, dated 2015).

These compounds were tested against human endothelial lipase (EL) (Homo sapiens (Human), UniProt Q9Y5X9) (assay: Human endothelial lipase (EL) inhibitory activity using human HDL). Conditions: human HDL 2 mg/ml, 4-hour reaction at 37° C., NEFA readout.
human endothelial lipase (EL), sequence (Q9Y5X9 21-500): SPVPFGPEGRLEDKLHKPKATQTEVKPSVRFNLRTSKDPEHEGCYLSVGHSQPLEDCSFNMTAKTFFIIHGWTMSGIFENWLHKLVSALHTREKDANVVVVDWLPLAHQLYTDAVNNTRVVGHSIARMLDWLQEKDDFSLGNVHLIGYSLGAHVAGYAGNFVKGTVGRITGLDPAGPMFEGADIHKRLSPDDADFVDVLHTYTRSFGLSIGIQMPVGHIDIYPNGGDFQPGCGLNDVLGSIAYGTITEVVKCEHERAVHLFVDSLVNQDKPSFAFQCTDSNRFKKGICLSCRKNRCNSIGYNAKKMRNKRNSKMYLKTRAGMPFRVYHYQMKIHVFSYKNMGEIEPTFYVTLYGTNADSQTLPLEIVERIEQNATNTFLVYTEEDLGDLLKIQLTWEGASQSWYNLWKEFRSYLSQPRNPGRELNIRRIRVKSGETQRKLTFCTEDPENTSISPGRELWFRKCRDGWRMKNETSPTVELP
Assay type: biochemical
Method: Evaluation Method of Human Endothelial Lipase (EL) Inhibitory Activity Using Human High-Density Lipoprotein (HDL)
After the present compound dissolved in DMSO was added to become 0.5% DMSO to the reaction buffer consisting of 20 mM tris hydrochloric acid (pH7.4), bovine serum albumin (0.5%), calcium chloride (4 mM), sodium chloride (150 mM) and human HDL (2 mg/ml), the EL enzyme was added (total volume was 20 μl).
After 4-hour reaction at 37° C., non-esterified fatty acid (NEFA) generated from HDL by EL was measured with a commercially available assay kit and the amount of NEFA was used as an index of enzyme activity.
`O=C(Cc1nc2ccc(-c3ccccc3)cc2s1)NCc1cccc(C(=O)O)c1` [II-1-1] gave an IC50 of 230 nM.
`NS(=O)(=O)c1cccc(CNC(=O)Cc2nc3ccc(-c4ccccc4)cc3s2)c1` [II-1-11] gave an IC50 of 560 nM.
Compound `CN(C)C(=O)c1cccc(CNC(=O)Cc2nc3ccc(-c4ccccc4)cc3s2)c1` [II-1-17] has an IC50 of 1300 nM.
`COCC(O)CNC(=O)Cc1nc2ccc(-c3ccccc3)cc2s1` (stereo not drawn) [II-1-190] gave an IC50 of 2100 nM.
In the case of `O=C(Cc1nc2cc(-c3cccc(C(F)(F)F)c3)ccc2s1)NCc1cccc(C(=O)O)c1` [II-1-202], the IC50 is reported as 290 nM.
Compound `O=C(Cc1nc2ccc(-c3ccccc3)cc2s1)NCc1nc(C(=O)O)cs1` [II-1-246] has an IC50 of 280 nM.
`N#CCNC(=O)CNC(=O)Cc1nc2ccc(-c3ccccc3)cc2s1` [II-2-1] gave an IC50 of 110 nM.
Compound `N#CC1(NC(=O)CNC(=O)Cc2nc3ccc(-c4ccccc4)cc3s2)CC1` [II-2-67] has an IC50 of 29 nM.
`CC(O)CNC(=O)CNC(=O)Cc1nc2ccc(-c3ccccc3)cc2s1` (stereo not drawn) [II-2-131] was tested, and the IC50 was 92 nM.
Work on `COc1cc2nc(CC(=O)NCC(=O)NCC#N)sc2cc1-c1ccccc1` [II-2-144] yielded an IC50 of 29 nM.
Compound `C#CCNC(=O)CNC(=O)Cc1nc2ccc(-c3ccccc3)cc2s1` [II-2-211] has an IC50 of 32 nM.
For `N#CCNC(=O)CNC(=O)Cc1nc2cc(-c3ccc(OC(F)(F)F)cc3)ccc2s1` [II-2-291], the IC50 was 56 nM.
